Results reported in patent US9090645B2, “Therapeutic compositions and methods of treatment with capsianoside-type compounds” (BMB Patent Holding Corporation, priority 2006, dated 2015).
Where “and” joins values, the source holds several entries; their conditions need not be identical. Equal values may be shown once.

Experiments:
[1] = system: capsaicin-treated hindpaw; assay: Analgesic Bioassay: rat hindpaw withdrawal latency assay; format: in vivo, Sprague-Dawley rats; settings: for Avg. Cmpd. @ 5 min (hindpaw withdrawal latency): 5 min after compound on capsaicin-treated hindpaw; for Avg. Cmpd. @ 5 min (hindpaw withdrawal latency) / Avg. Cmpd. @ 20 min (hindpaw withdrawal latency) / Avg. Cmpd @ 30 min (hindpaw withdrawal latency): 498: 0.27 mg, 660: 0.33 mg; for Avg. Cmpd. @ 5 min (hindpaw withdrawal latency) / Avg. Cmpd. @ 20 min (hindpaw withdrawal latency) / Avg. Cmpd @ 30 min (hindpaw withdrawal latency) / Avg. Cap. @ 20 min (hindpaw withdrawal latency) / Avg. Cap. @ 25 min (hindpaw withdrawal latency) / Avg. Cap. @ 30 min (hindpaw withdrawal latency) / Avg. All Capsaicin (hindpaw withdrawal latency) / Avg. All Baselines (hindpaw withdrawal latency): n=5; for Avg. Cmpd. @ 20 min (hindpaw withdrawal latency): 20 min after compound on capsaicin-treated hindpaw; for Avg. Cmpd @ 30 min (hindpaw withdrawal latency): 30 min after compound on capsaicin-treated hindpaw; for Avg. Cap. @ 20 min (hindpaw withdrawal latency) / Avg. Cap. @ 25 min (hindpaw withdrawal latency) / Avg. Cap. @ 30 min (hindpaw withdrawal latency) / Avg. All Capsaicin (hindpaw withdrawal latency) / Avg. All Baselines (hindpaw withdrawal latency): Table 7; for Avg. Cap. @ 20 min (hindpaw withdrawal latency): 20 min post-capsaicin; for Avg. Cap. @ 20 min (hindpaw withdrawal latency) / Avg. Cap. @ 25 min (hindpaw withdrawal latency) / Avg. Cap. @ 30 min (hindpaw withdrawal latency) / Avg. All Capsaicin (hindpaw withdrawal latency): before compound; for Avg. Cap. @ 25 min (hindpaw withdrawal latency): 25 min post-capsaicin; for Avg. Cap. @ 30 min (hindpaw withdrawal latency): 30 min post-capsaicin; for Avg. All Capsaicin (hindpaw withdrawal latency): all post-capsaicin times; for Avg. All Baselines (hindpaw withdrawal latency): before any treatment
Procedure: A rat hindpaw assay was used to determine the therapeutic effectiveness of various extracts/compounds as analgesics in the present invention.
Sprague-Dawley rats (225-250 g, male) were anesthetized with urethane and placed on their sides on a disposable Chux pad. Both hindpaws for each rat were blackened with India ink which was allowed to dry for 10 minutes. An ELH projector lamp calibrated to a standard mW/cm^2 was used as a pain stimulus and was condensed into an area of 5×15 mm on each hindpaw and placed perpendicular to, and 72 mm from, each hindpaw.
Multiple baseline hindpaw withdrawal latency times were recorded (in seconds) for each medial and each lateral surface of each hindpaw. Subsequently, 100 μl of 1 μmolar capsaicin was applied with a pipette to cover one hindpaw of each animal and allowed to dry for 10 minutes, rendering the capsaicin-treated hindpaw hypersensitive to pain stimulus relative to the non-capsaicin treated hindpaw (and thereby decreasing the withdrawal latency period for the capsaicin-treated hindpaw relative to the non-treated hindpaw).
Both hindpaws were then re-blackened with India ink which was allowed to dry for 10 minutes, and hindpaw withdrawal latencies were recorded for both the capsaicin-treated and untreated hindpaws on both the medial and lateral aspects of both hindpaws at 20, 25 and 30 minutes. […] By contrast, only minor drops in the withdrawal latency periods of the untreated hindpaws was seen, and the effect that was observed is believed to be due to the central mechanism effect of capsaicin-treatment on the other hindpaw.
To determine the analgesic properties of each fraction, 100 μl of each fraction were applied to the capsaicin-treated hindpaw by pipette and permitted to dry (the untreated hindpaw was not treated with the fraction). Hindpaw withdrawal latencies were then recorded at 5, 20 and 30 minutes for both the capsaicin/fraction-treated hindpaw and the untreated hindpaw. An increase in the hindpaw withdrawal time was indicative of an analgesic effect by the applied fraction.

[2] = system: carrageenan-induced inflammation in air pouch; assay: Inflammation Bioassay: mouse air pouch assay (carrageenan), white blood cells in exudates; format: in vivo, mice
Procedure: A mouse air pouch assay was used to determine the therapeutic effectiveness of various extracts/compounds as anti-inflammatory agents in the present invention.
To induce air pouches, 10-15 week old mice were injected subcutaneously on the back with 3 ml of air.
On day 2, the pouches were reinflated with 1.5 m. of air.
On day 6, inflammation was induced by injecting 1 ml of a suspension of carrageenan (2% weight/volume in calcium-free and magnesium-free phosphate buffered saline (PBS) solution) into the air pouch.
100 μL of solution including test compounds were injected with the carrageenan (additional 100 μL of PBS were injected into the controls).
After 4 hours, the mice were sacrificed by including CO2 narcosis, the pouches were flushed with 2 ml of PBS, and exudates were harvested.
Exudates were diluted 1:1 with 0.015% methylene blue in PBS.
White blood cells were counted in a standard hemocytometer chamber (American Optical, Buffalo, N.Y.).

[3] = individual mice, 100 μL test solution injected with carrageenan, 4 hours

Compound	Avg. Cmpd. @ 5 min (hindpaw withdrawal latency) [1] [s]	Avg. Cmpd. @ 20 min (hindpaw withdrawal latency) [1] [s]	Avg. Cmpd @ 30 min (hindpaw withdrawal latency) [1] [s]	analgesic activity (in words) ([1]; Analgesic Bioassay (Example 1))	Avg. Cap. @ 20 min (hindpaw withdrawal latency) [1] [s]	Avg. Cap. @ 25 min (hindpaw withdrawal latency) [1] [s]	Avg. Cap. @ 30 min (hindpaw withdrawal latency) [1] [s]	Avg. All Capsaicin (hindpaw withdrawal latency) [1] [s]	Avg. All Baselines (hindpaw withdrawal latency) [1] [s]	Average Cells (10^6/ml) (white blood cells in exudate) ([2]; average of five mice, control mice (PBS) 2.67)	Cells (10^6/ml) (white blood cells in exudate) [2, 3]	Cells/ml (white blood cells in exudate) [2, 3]	anti-inflammatory effects compared with methotrexate and dexamethasone ([2]; mouse air pouch)
C=C[C@](C)(CC/C=C(\C)CC/C=C(\C)CC(O)/C=C(\C)C(=O)O)O[C@@H]1OC(CO)[C@@H](O)C(O)C1O (relative stereo) [Compound 498, 14-(beta-D-glucopyranosyloxy)-4-hydroxy-2,6,10,14-tetramethyl-2,6,10,15-hexadecatetraenoic acid [4R-(2E,4R*,6E,10E,14S*)]]	13.6	9.4	8.1	strong analgesic effect	7.4	7.956	5.4	6.9	10.77				
C=C[C@](C)(CC/C=C(\C)CC/C=C(\C)CC(O)/C=C(\C)C(=O)O)O[C@@H]1OC(CO)[C@@H](O)C(O)C1O[C@@H]1OC(CO)[C@@H](O)C(O)C1O (stereo partly drawn) [Compound 660, capsianoside I]	10.5	9.6	6.5		9.5	6.4	5.9	7.3	9.5	1.54 10^6/ml	1.30 10^6/ml and 2.49 10^6/ml (2×) and 0.32 10^6/ml and 1.09 10^6/ml	1.30E+06 Cells/ml and 2.49E+06 Cells/ml (2×) and 3.23E+05 Cells/ml and 1.09E+06 Cells/ml	comparable to 0.5-1.0 mg/kg/week of chronic methotrexate, or 1.5 mg/kg acute dose of dexamethasone
